Four compounds from patent US20220162262A1, “NOVEL COMPOUNDS AND THERAPEUTIC USES THEREOF” (priority 2019, published 2022) can be followed below.

Type in all cases: cell-based
Assay [1] deals with E. coli K1:018ac:H7 (ATCC 700973). As to the kind of experiment: Flow cytometric anti-Gal IgM antibody recruitment assay, E. coli. As to conditions: for E. coli recruitment assay, side by side comparison with reference example (FIG. 2): 20 μM, in triplicate, E. coli ATCC 700973. The protocol:
(§1) Flow Cytometric Antibody Recruitment Assay Using an Anti-Galα1-3Galβ1-4GlcNAc (Anti-Gal) Antibody
(§2) A secondary fluorescently labelled anti-IgM antibody was used to detect the anti-Gal antibody binding.
(§3) The assays were carried out in polystyrene 96-well U bottom plates (Costar). Frozen stocks of bacteria in mid-exponential phase were thawed, centrifuged and resuspended in LB broth, Miller (Fisher BP1426-500) at OD595=0.2. The bacteria was grown to mid-exponential phase (OD595=0.4), washed once with Hank's Balanced Salt Solution with calcium and magnesium (HBSS+/+) and then resuspended in HBSS+/+ at a bacterial D595=0.6. Bacteria was diluted ⅙ and placed in the 96-well U bottom plate. The bacteria were then incubated for 45 minutes with the compounds of Example 1-4 and reference compounds A-D (see Table 1) at 20 μM concentrations, Polymyxin B at 20 μM concentrations, or buffer alone (vehicle control), at room temperature and shaking at 450 rpm. The bacteria were then washed three times with 200 μL HBSS+/+, prior to adding 50 μL of the mouse/human chimeric anti-Gal IgM antibody M86 (Absolute Antibody Ab00532) at a final concentration of 25 μg/mL in HBSS+/+. The samples were incubated for 1 hour at room temperature shaking at 450 rpm. The bacteria were washed three times as above, prior to adding 100 μL of a FITC-labeled anti-human IgM secondary antibody (Biolegend 314506) at 10 μg/mL in HBSS+/+ and incubating at room temperature for 1 hour at 450 rpm. After three final washes with 200 μL HBSS+/+, the bacteria were resuspended in 200 μL HBSS+/+ and evaluated for anti-Gal antibody binding on a Cytoflex flow cytometer (Beckman Coulter). 50,000 counts of bacterial particles were sampled and the median fluorescent shift was recorded in the FITC-A channel. Data from all samples were analysed using Kaluza software (Beckman Coulter).
(§4) The fold shift over background was calculated by dividing the Median Fluorescent Intensity (MFI) obtained in the presence of 20 μM of the Example compounds by the MFI value obtained in the vehicle controls, i.e., the absence of Examples. The higher the fold shift over background, the more anti-Gal was bound to the bacterial surface. The shift in fluorescence intensity (FITC) occurs due to the binding event at each end of the molecule.
(§5) The fold shift over background was calculated by dividing the Median Fluorescent Intensity (MFI) obtained in the presence of 20 μM of the Example compounds (10 μM for Reference Example A and Example 2 against P. aeruginosa ATCC 27853, 6 μM for Reference Example A and Example 2 against P. aeruginosa PAO1 ATCC 15692) by the MFI value obtained in the vehicle controls, i.e., the absence of Examples. […] The shift in fluorescence intensity (FITC) occurs due to the binding event at each end of the molecule.
A general note: Flow cytometry measures light scatter and fluorescence of single cells or particles in a stream.

Assay [2] has as its system P. aeruginosa (ATCC 27853). Description: Flow cytometric anti-Gal IgM antibody recruitment assay, P. aeruginosa ATCC 27853. As to conditions: for IgM Recruitment (20 μM, Average fold change) P. aeruginosa ATCC 27853: 20 μM compound, anti-Gal M86 IgM, MFI fold shift over vehicle control. The protocol:
as §1, §2, §3, §4, §5

In assay [3] the test system is K. pneumoniae (NCTC 13465). Description: Flow cytometric anti-Gal IgM antibody recruitment assay, K. pneumoniae. As to conditions: for IgM Recruitment (20 μM, Average fold change) K. pneumoniae NCTC 134655: 20 μM compound, anti-Gal M86 IgM, MFI fold shift over vehicle control; for K. pneumoniae recruitment assay, side by side comparison with reference example (FIG. 2): 20 μM, in triplicate. How it is done: as §1, §2, §3, §4
The fold shift over background was calculated by dividing the Median Fluorescent Intensity (MFI) obtained in the presence of 20 μM of the Example compounds (10 μM for Reference Example A and Example 2 against P. aeruginosa ATCC 27853, 6 μM for Reference Example A and Example 2 against P. aeruginosa PAO1 ATCC 15692) by the MFI value obtained in the vehicle controls, i.e., the absence of Examples. The higher the fold shift over background, the more anti-Gal was bound to the bacterial surface. The shift in fluorescence intensity (FITC) occurs due to the binding event at each end of the molecule.

Positions of bridges follow the written chain, without caps; N, C: chain ends. Non-standard residues stand in square brackets, D forms with d. Residues, ends and D or L forms follow the SMILES beside them. *: point of attachment. X1 = CC(=O)NC1[C@H](OCCCNC(=O)COc2cc(C(=O)*)cc(-c3ccccc3)c2)OC(CO)[C@@H](O[C@@H]2OC(CO)[C@H](O)[C@H](O[C@H]3OC(CO)[C@H](O)C(O)[C@@H]3O)C2O)[C@@H]1O; X2 = CC(=O)NC1C(O)[C@H](OC2OC(CO)C(O)[C@H](O[C@H]3OC(CO)C(O)C(O)C3O)C2O)C(CO)O[C@H]1OCCCNC(=O)COc1cc(C(=O)*)cc(-c2ccccc2)c1; PEG8 = NCCOCCOCCOCCOCCOCCOCCOCCOCCC(=O)O; Gly(octyl) = CCCCCCCC[C@H](N)C(=O)O; Dab = NCC[C@H](N)C(=O)O; Dap = NC[C@H](N)C(=O)O; Ahx = NCCCCCC(=O)O

Turning to `CCCCCCCC[C@H](NC(=O)CCOCCOCCOCCOCCOCCOCCOCCOCCNC(=O)c1cc(OCC(=O)NCCCO[C@@H]2OC(CO)[C@@H](O[C@@H]3OC(CO)[C@H](O)[C@H](O[C@H]4OC(CO)[C@H](O)C(O)[C@@H]4O)C3O)[C@H](O)C2NC(C)=O)cc(-c2ccccc2)c1)C(=O)N[C@@H](CCN)C(=O)N[C@H](C(=O)N[C@H](CO)C(=O)N[C@H]1CCNC(=O)[C@H]([C@@H](C)O)NC(=O)[C@H](CCN)NC(=O)[C@H](CCN)NC(=O)[C@H](CC(C)C)NC(=O)[C@@H](Cc2ccccc2)NC(=O)[C@H](CCN)NC1=O)[C@@H](C)O` (stereo partly shown) [Example 3] ({X1-PEG8}-[Gly(octyl)][Dab]T[dS][Dab][Dab][dF]L[Dab][Dab]T; lactam 5-C), the “E. coli recruitment assay, side by side comparison with reference example (FIG. 2)” value (“E. coli recruitment assay, side” below) in assay [1] is “superiority over Reference Example C”. For the same compound, the “IgM Recruitment (20 μM, Average fold change) P. aeruginosa ATCC 27853” value in assay [2] is 1491 (n = 4) fold change. For the same compound, the “P. aeruginosa recruitment assay, side by side comparison with reference example (FIG. 2C)” value in assay [2] (20 μM, in triplicate) was “superiority over Reference Example C”. Besides, in assay [3], the “IgM Recruitment (20 μM, Average fold change) K. pneumoniae NCTC 134655” value was 1015 (n = 4) fold change and the “K. pneumoniae recruitment assay, side by side comparison with reference example (FIG. 2)” value is given as “superiority over Reference Example C”.

For `CCCCCCCC[C@H](NC(=O)CCCCCNC(=O)CCCCCNC(=O)c1cc(OCC(=O)NCCCO[C@@H]2OC(CO)[C@@H](OC3OC(CO)C(O)[C@H](O[C@H]4OC(CO)C(O)C(O)C4O)C3O)C(O)C2NC(C)=O)cc(-c2ccccc2)c1)C(=O)N[C@@H](CCN)C(=O)N[C@H](C(=O)N[C@@H](CCN)C(=O)N[C@H]1CCNC(=O)[C@H]([C@@H](C)O)NC(=O)[C@H](CCN)NC(=O)[C@H](CCN)NC(=O)[C@H](CC(C)C)NC(=O)[C@@H](Cc2ccccc2)NC(=O)[C@H](CCN)NC1=O)[C@@H](C)O` (stereo partly shown) [Example 1] ({X2-Ahx-Ahx}-[Gly(octyl)][Dab]T[Dab][Dab][Dab][dF]L[Dab][Dab]T; lactam 5-C), the “E. coli recruitment assay, side” value in assay [1] was “superiority over Reference Example B”. Besides, the “IgM Recruitment (20 μM, Average fold change) P. aeruginosa ATCC 27853” value in assay [2] is given as 391 (n = 2) fold change.

Polymyxin B [PMB, reference compound]: the “IgM Recruitment (20 μM, Average fold change) E. coli K1 ATCC700973” value in assay [1] (20 μM compound, anti-Gal M86 IgM, MFI fold shift over vehicle control) is 1 (n = 5) fold change. In addition, in assay [2], the “IgM Recruitment (20 μM, Average fold change) P. aeruginosa ATCC 27853” value was 1 (n = 5) fold change. The “IgM Recruitment (20 μM, Average fold change) K. pneumoniae NCTC 134655” value in assay [3] was 1 (n = 2) fold change.

`CCCCCCCC[C@H](NC(=O)CCOCCOCCOCCOCCOCCOCCOCCOCCNC(=O)c1cc(OCC(=O)NCCCO[C@@H]2OC(CO)[C@@H](O[C@@H]3OC(CO)[C@H](O)[C@H](O[C@H]4OC(CO)[C@H](O)C(O)[C@@H]4O)C3O)[C@H](O)C2NC(C)=O)cc(-c2ccccc2)c1)C(=O)N[C@@H](CCN)C(=O)N[C@H](C(=O)N[C@@H](CN)C(=O)N[C@H]1CCNC(=O)[C@H]([C@@H](C)O)NC(=O)[C@H](CCN)NC(=O)[C@H](CCN)NC(=O)[C@H](CC(C)C)NC(=O)[C@@H](Cc2ccccc2)NC(=O)[C@H](CCN)NC1=O)[C@@H](C)O` (stereo partly shown) [Example 4] ({X1-PEG8}-[Gly(octyl)][Dab]T[Dap][Dab][Dab][dF]L[Dab][Dab]T; lactam 5-C): the “E. coli recruitment assay, side” value in assay [1] is recorded as “superiority over Reference Example D”. Further, in assay [3], the “IgM Recruitment (20 μM, Average fold change) K. pneumoniae NCTC 134655” value was 898 (n = 2) fold change and the “K. pneumoniae recruitment assay, side by side comparison with reference example (FIG. 2)” value is listed as “superiority over Reference Example D”.
